pEC50, pIC50: −log10 of the molar value. The source made the active and inactive calls.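 How the source made its calls: active means compounds giving half or more protection of infected cells from virus-caused growth loss, again on retest; inactive means the rest.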 Where a SMILES comes first, the peptide text is derived from it.
Test system: CEM cells HIV-1 protection, formazan growth assay
Experiment: NCI AIDS Antiviral Assay
Settings: for pIC50: measured here: growth of uninfected CEM cells
Method in brief: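 CEM (human) cells, HIV-1 infected vs uninfected, 5-point dosing, formazan growth read-out. Retest threshold 50% protection.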

Compound	pEC50	pIC50	outcome
O=C(NN1C(=O)c2ccccc2C1=O)c1ccccc1Nc1ccccc1C(=O)NN1C(=O)c2ccccc2C1=O	< 3.70	< 3.70	
Cn1ncc2c(c1=O)Nc1ccccc1S2(=O)=O	< 3.95	< 3.95	
CC1=CCCC2C(C=O)(C1)CC(C)C2(CO)CC/C(=C/CO)CO (configuration not stated)			inactive
Cc1cn(C2CC(N=[N+]=[N-])C(C(=O)O)O2)c(=O)[nH]c1=O (configuration not stated)	4.93	< 3.70	
N#C/C(N)=C(\C#N)N=C1OCC(O)C(O)C1O (configuration not stated)			inactive
Cn1c2ccccc2c2n[nH]c(=S)nc21	4.26	< 3.70	
CC(=O)OCCOCn1c2c(c(=S)[nH]c1=O)CCC2	< 3.70	< 3.70	
O=c1c2cc([N+](=O)[O-])cnc2sn1-c1ccc([N+](=O)[O-])cc1	< 3.70	4.20	
CC[C@@H](C(=O)[C@@H](C)[C@@H](O)[C@H](C)CCc1ccc(C)c(O)c1C(=O)O)[C@H]1O[C@](CC)([C@H]2CC[C@](O)(CC)[C@H](C)O2)C[C@@H]1C	5.82	5.74	
OCCN(CCO)c1nc(N2CCCCC2)c2nc(N(CCO)CCO)nc(N3CCCCC3)c2n1			inactive
CC(C)(C)NC(NC(C)(C)C)=C(C(Cl)=C(Cl)Cl)[N+](=O)[O-]	< 3.70	< 3.70	
c1ccc(NNCC[P+](c2ccccc2)(c2ccccc2)c2ccccc2)cc1	< 3.70	5.54	
c1ccc(CSP234N5CCN2CCN3CCN4CC5)c(CSP234N5CCN2CCN3CCN4CC5)c1	< 4.00	4.40	
[Pt].c1ccc(P(CCP(CCP(c2ccccc2)c2ccccc2)CCP(c2ccccc2)c2ccccc2)c2ccccc2)cc1	< 5.25	5.53	
O=C(N/N=C(/c1nc2ccc([N+](=O)[O-])cc2[nH]c1=O)C(O)c1ccc([N+](=O)[O-])cc1)c1ccncc1 (configuration not stated)	< 3.86	3.89	
Cc1nc(-c2nc(C)c(C(=O)NNC(=O)C[n+]3ccccc3)s2)sc1C(=O)NNC(=O)C[n+]1ccccc1	< 4.24	< 4.24	
CCn1c(SCC(=O)NNC(=S)Nc2ccc(Cl)cc2)nc2ccccc2c1=O	< 3.70	4.02	
Nc1ncnc2c1ncn2C1CC(CO)C(CO)O1 (configuration not stated)			inactive
O=C1C2C=CC(n3[nH]c(=O)n(Cc4ccccc4)c3=O)CC2C(=O)N1c1ccc(Br)cc1 (configuration not stated)	< 3.30	3.87	
CC(C)=CC1(C)/C(=N\O)C(C)(CC(C)C)C(=O)N1O (configuration not stated)	< 3.03	< 3.03	
Cc1ncc([N+](=O)[O-])n1CC(O)Cn1ccnc1[N+](=O)[O-] (configuration not stated)	< 3.70	< 3.70	
O=C(CC(O)(C(F)(F)F)C(F)(F)Cl)CC(O)(C(F)(F)F)C(F)(F)Cl (configuration not stated)			inactive

Compound	pEC50	pIC50	outcome
CC(C)[Si]1(C(C)C)OCC2OC(n3cnc4c(N)ncnc43)C(N)C2O[Si](C(C)C)(C(C)C)O1 (configuration not stated)	< 3.70	5.07	
C#CCCCOc1ncccn1	< 3.70	< 3.70	
COc1cc(C)cc(C(=O)OCc2ccccc2)c1C1=C(Cl)C(=O)C(Cl)=CC1=O	< 4.28	5.07	
CCCCCCCCCCCCCCCCCCNC(=S)/N=C\C(C(=O)Nc1ccccc1C)=C(/C)O	< 3.70	3.94	
CC1(C)CC(=O)C(/C=N/C(=S)NCc2ccccc2)=C(O)C1	< 3.70	< 3.70	
Cc1cccc(C(O)c2ccncc2)c1O (configuration not stated)	< 3.70	3.72	
O=C1c2ccccc2OP(=O)(OCC(F)(F)F)OC1(C(F)(F)F)C(F)(F)F (configuration not stated)	< 3.24	3.90	
O=[N+]([O-])C1CC/C(=N/O)c2nonc21 (configuration not stated)	< 3.70	3.91	
COc1cnn(-c2ccccc2)c(=O)c1SCc1ccc(Cl)c(Cl)c1	< 4.46	4.56	
COc1cc2ccccc2cc/c1=N\O	< 3.70	4.38	
OC(c1ccccc1)c1c(-c2ccccc2)[nH]c(-c2ccccc2)c1C(O)c1ccccc1 (configuration not stated)			inactive
CN(C(=O)C1(C(=O)C=[N+]=[N-])CC1)c1ccccc1	< 2.99	< 2.99	
COc1ccccc1OCC(COC(=O)Nc1ccc(C)cc1)OC(=O)Nc1ccc(C)cc1 (configuration not stated)	< 4.11	4.14	
CC(=O)O[C@H]1C[C@H]2[C@@H](OC(C)=O)/C=C3\C[C@](C)(C(=O)[C@H](O)C(=C1C)C2(C)C)[C@@H](O)C[C@@H]3OC(=O)[C@H](O)[C@H](c1ccccc1)N(C)C	< 3.70	< 3.70	
CC(C)n1nnnc1-c1ccccc1	< 3.70	< 3.70	
O=P1(N2CCOCC2)OCCO1	< 3.70	< 3.70	
CC1C=C[C@H](Sc2ccccc2)CC[C@@]1(C)O (some centres not stated)	< 3.60	4.65	
COc1cc2c(cc1OC)[C@@H]([C@H](O)c1ccccc1)NCC2			inactive
CCOC#CCCOCc1ccccc1	< 4.18	< 4.18	
Nc1ccc(S(=O)(=O)Nc2nc3ccccc3nc2N2CCCCCC2)cc1	< 3.70	4.48	
CSc1ccc(C2OC(=O)c3ccccc32)c2ccccc12 (configuration not stated)	< 4.77	< 4.77	
CNC(=O)c1n[nH]n(Cc2ccccc2)c1=S	< 3.70	< 3.70	

Compound	pEC50	pIC50	outcome
CC1CN=C(N(C)C(=O)Nc2ccc(Cl)c(Cl)c2)S1 (configuration not stated)	< 3.70	4.43	
Fc1nc(Sc2ncnc3nc[nH]c23)nc(-c2c3ccccc3c3sc4ccccc4n23)n1	< 3.70	4.01	
CCCCCC/C(CC(=O)CCC(=O)NCCc1ccccc1)=N\NC(=O)c1ccc2ccccc2c1O	< 3.60	4.84	
COc1cc(C2C(Cl)C(=O)N2NC(=O)c2ccccc2O)ccc1O (configuration not stated)	< 4.56	< 4.56	
CC(=O)OC1CN(OCC2OC(OC(C)=O)C(OC(C)=O)C(OC(C)=O)C2OC(C)=O)CC(OC(C)=O)C1OC(C)=O (configuration not stated)	< 3.70	< 3.70	
NC(=O)C(NN=C(c1ccccc1)c1ccccc1)c1ccccc1 (configuration not stated)			inactive
COc1ccccc1NC(=O)C1=C(C)NC(C)=C(C(=O)Nc2ccccc2OC)C1c1ccc([N+](=O)[O-])cc1	< 5.01	< 5.01	
COC1OC(=O)C(OC)C(OC)C1OC (configuration not stated)			inactive
Cn1c2ccccc2c2nn3cnnc3nc21	< 4.49	< 4.49	
NC(=O)CN1CC(C2=C(O)CN(CC(N)=O)C2=O)=CC1=O			inactive
N=C(N)c1ccc(N=Nc2cc(N=Nc3ccc(C(=N)N)cc3)c(O)cc2O)cc1	4.07	< 4.00	
COc1c(OCC(O)CN2CCCCC2)c2c(C)coc2c2ccoc12 (configuration not stated)	< 3.20	4.45	
CC(C)N=C(NC#N)NS(=O)(=O)c1cnccc1Nc1ccc(Cl)cc1	< 3.70	< 3.70	
C=C1[C@@H]2O[C@@H]3CC(=O)[C@@H](O)[C@]2(C(=O)N1OC)[C@H]3/C=C/C	< 3.94	< 3.94	
CCOC(=O)C1(C#N)OC(=O)c2cnccc21 (configuration not stated)	< 3.70	< 3.70	
CN1CN(c2ccccc2)C2(CCN(C3Nc4ccccc4O3)CC2)C1=O (configuration not stated)	< 3.70	4.13	
COc1ccc2cc1Oc1ccc(cc1)CC1=NCCc3cc(OC)c(cc31)Oc1c(OC)c(OC)c(OC)c3c1[C@H](C2)N(C)CC3			inactive
COc1cc(C(=O)O)ccc1O	< 3.70	< 3.70	
CCNc1c(C(=O)N(CC)CC)c(=O)[nH]c2ncccc12	< 3.06	< 3.06	
O=C(Cc1ccccc1)N/N=C(/c1nc2ccc([N+](=O)[O-])cc2[nH]c1=O)C(O)c1ccco1 (configuration not stated)	< 3.68	< 3.68	
Cc1cc(C)c(S(=O)(=O)ONC(=O)OC(C)(C)C)c(C)c1			inactive
CCN1C(=O)C(=O)C(CC)(CC)C1=O	< 3.70	< 3.70	

Compound	pEC50	pIC50	outcome
COC(CC[P+](c1ccccc1)(c1ccccc1)c1ccccc1)(C(=O)c1ccccc1)c1ccccc1 (configuration not stated)	< 4.70	6.35	
O=C(CCn1[nH]c(=O)c(Cl)c(Cl)c1=O)NNC(=O)C[n+]1ccccc1	< 3.23	< 3.23	
CCN(CC)CC(=O)N(CC)c1ccc(C)c(Cl)c1	< 3.70	< 3.70	
C=CCC1(O)CC(n2ccc(=O)[nH]c2=O)OC1CO[Si](C)(C)C(C)(C)C (configuration not stated)	< 3.70	< 4.00	
O=c1c2cccc3cccc(c4n1CCCN=4)c32	< 3.70	4.77	
C/C(=N\NC(=O)C[N+](C)(C)C)c1sc(-c2cccnc2)nc1C	< 3.87	4.14	
CCC(C)C(NC(=O)C(CCC(N)=O)NC(=O)C(CCC(N)=O)NC(=O)C(CO)NC(=O)C(CC(C)C)NC(=O)C(CC(N)=O)NC(=O)C(N)C(C)O)C(=O)NC(CO)C(=O)NC(CO)C(=O)NC(CC(N)=O)C(=O)O (configuration not stated) (H-TNLSQQISSN-OH; configuration not given here)	< 4.54	< 4.54	
c1ccc(CNc2nncc3[nH]cnc23)cc1	< 3.70	< 3.70	
CC1=C(O)C(=O)C(C)=C(O)C1=O	< 3.29	5.03	
C=CCNC(=S)/N=C/C(C(=O)Nc1ccccc1C)=C(\C)O	< 3.70	< 3.70	
CN(C)c1ccc(C=NC23CC4CC(CC(C4)C2)C3)cc1	< 4.20	< 4.20	
CCN(CC)CSc1nc2ccccc2s1			inactive
COc1ccc(/C(=N/Nc2ccccc2)C(c2ccc(OC)cc2)C2OC(=O)c3ccccc32)cc1 (configuration not stated)	< 4.55	< 4.55	
COc1ccc(/C(C#N)=C\c2ccc(N(C)C)cc2)cc1	< 4.00	5.91	
CCOC(=O)C(C)(C)C(OP(=S)(OCC)OCC)=C(C)C	< 5.51	< 5.51	
Nc1ccc2ncc(Nc3ccc(F)cc3)nc2c1	< 3.57	3.87	
O=C1C[C@H](c2ccccc2)O[C@@H](c2ccccc2)C1	< 3.70	< 3.70	
COc1cccc(/C=N/[N-]C(N)=O)c1[O-].[Cu+2].c1ccncc1	< 5.24	< 5.24	
N#CC(C(=O)/C(=N/NC(=O)c1ccccc1O)C(C#N)c1ccc(Cl)cc1)c1ccc(Cl)cc1 (configuration not stated)	< 4.39	4.65	

Reference: PubChem BioAssay AID179 (DTP/NCI, 2004)
